Tests used:
[1] = target: T1, glucocorticoid receptor (GR) (Homo sapiens, UniProt P04150); test: Luciferase reporter selectivity assay in PC3 cells, GR; assay type: cell-based; conditions: 24 h
T1 construct: expressed in transfected cells; host or cells: PC3
T1 sequence (P04150 1-777): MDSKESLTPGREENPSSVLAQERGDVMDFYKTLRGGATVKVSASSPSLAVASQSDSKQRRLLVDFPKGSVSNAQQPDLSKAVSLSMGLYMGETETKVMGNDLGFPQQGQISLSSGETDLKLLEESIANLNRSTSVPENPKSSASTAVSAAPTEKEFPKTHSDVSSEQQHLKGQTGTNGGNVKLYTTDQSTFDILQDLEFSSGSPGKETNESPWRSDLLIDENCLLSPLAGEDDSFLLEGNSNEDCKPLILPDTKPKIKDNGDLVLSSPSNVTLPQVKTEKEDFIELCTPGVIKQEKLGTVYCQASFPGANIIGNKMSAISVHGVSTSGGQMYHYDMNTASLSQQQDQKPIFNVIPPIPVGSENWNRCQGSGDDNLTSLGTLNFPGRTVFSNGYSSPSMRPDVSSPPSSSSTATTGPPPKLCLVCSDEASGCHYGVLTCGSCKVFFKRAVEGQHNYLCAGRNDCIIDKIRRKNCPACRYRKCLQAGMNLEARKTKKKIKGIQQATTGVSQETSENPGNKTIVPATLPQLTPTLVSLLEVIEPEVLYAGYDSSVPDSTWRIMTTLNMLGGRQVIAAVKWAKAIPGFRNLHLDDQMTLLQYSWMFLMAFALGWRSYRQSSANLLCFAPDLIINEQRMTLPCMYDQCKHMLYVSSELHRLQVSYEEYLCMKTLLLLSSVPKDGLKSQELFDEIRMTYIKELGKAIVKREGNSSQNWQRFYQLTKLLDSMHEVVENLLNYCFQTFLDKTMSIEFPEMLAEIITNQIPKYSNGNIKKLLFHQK
Method: (§1) Figure 4 Further activity profile of VPC-16606. (A,B) Chromatin immunoprecipitation (ChIP) analysis of ERα binding to the pS2 enhancer, or the GAPDH promoter, in MCF7 cells. Where indicated, ERα was stimulated with 1 nM E2 or dimethyl sulfoxide (DMSO) alone, and the compound was administered at a 6 μM concentration. Sheared chromatin-protein complexes were precipitated with the ERα antibody, reverse cross-linked and analyzed by quantitative PCR. The results are normalized as fold enrichment over precipitation with a rabbit isotype control IgG antibody for each condition tested. Error bars indicate standard error of the mean (SEM) for 3 independent experiments performed in triplicates. Fold enrichment from the compound tested condition (ERα antibody) was statistically compared against DMSO + E2 with a two-tailed t-test (unpaired) *** indicates p-value <0.001. (C) Specificity of VPC-16606 was evaluated in the luciferase reporter assay. PC3 cells were transfected with plasmids expressing androgen receptor (AR), progesterone receptor (PR) or glucocorticoid receptor (GR) along with their responsive luciferase reporter constructs bearing androgen response element (ARE), progesterone response element (PRE) or glucocorticoid response element (GRE), respectively. […] Y-axis represents relative luminescence (RLU) after normalizing to constitutive renilla reporter. […]

[2] = target: T2, progesterone receptor (PR) (Homo sapiens, UniProt P06401); test: Luciferase reporter selectivity assay in PC3 cells, PR; assay type: cell-based; conditions: 24 h
T2 construct: expressed in transfected cells; host or cells: PC3
T2 sequence (P06401 1-933): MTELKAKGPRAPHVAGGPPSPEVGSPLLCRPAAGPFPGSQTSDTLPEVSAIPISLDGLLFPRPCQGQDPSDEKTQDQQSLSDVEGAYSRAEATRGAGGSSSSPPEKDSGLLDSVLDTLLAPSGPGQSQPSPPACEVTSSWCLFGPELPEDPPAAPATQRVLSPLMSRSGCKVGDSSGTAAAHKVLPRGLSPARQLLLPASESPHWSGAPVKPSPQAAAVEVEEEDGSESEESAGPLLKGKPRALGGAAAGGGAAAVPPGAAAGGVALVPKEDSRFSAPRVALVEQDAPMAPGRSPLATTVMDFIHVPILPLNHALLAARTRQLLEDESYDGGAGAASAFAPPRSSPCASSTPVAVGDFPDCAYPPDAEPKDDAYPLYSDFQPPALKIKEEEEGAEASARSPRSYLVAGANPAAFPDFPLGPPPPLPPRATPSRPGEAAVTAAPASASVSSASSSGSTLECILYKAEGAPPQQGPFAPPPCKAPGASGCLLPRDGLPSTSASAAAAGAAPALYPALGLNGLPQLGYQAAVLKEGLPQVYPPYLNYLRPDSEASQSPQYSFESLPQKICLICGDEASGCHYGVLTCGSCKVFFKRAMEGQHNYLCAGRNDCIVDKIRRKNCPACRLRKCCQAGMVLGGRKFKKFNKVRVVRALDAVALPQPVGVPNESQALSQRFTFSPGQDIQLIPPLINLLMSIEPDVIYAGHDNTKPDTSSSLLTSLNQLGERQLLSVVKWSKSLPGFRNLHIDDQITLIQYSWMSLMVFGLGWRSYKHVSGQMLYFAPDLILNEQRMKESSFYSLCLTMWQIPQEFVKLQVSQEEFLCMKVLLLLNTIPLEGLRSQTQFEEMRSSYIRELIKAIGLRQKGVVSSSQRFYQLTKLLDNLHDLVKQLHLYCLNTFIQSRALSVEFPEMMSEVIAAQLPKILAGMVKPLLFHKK
Method: as §1

Compound: CC(=O)N(/N=C1\Sc2c(C)cccc2C1=O)c1ccccc1Cl [VPC-16606]
- Effect on GR activity (luciferase) ([1]; 50 µM): some effect
- Effect on GR activity (luciferase) ([1]; doses up to 25 µM): does not affect the activity
- Effect on PR activity (luciferase) ([2]; 50 µM): some effect
- Effect on PR activity (luciferase) ([2]; doses up to 25 µM): does not affect the activity
